{"source": "patent US20180149606A1", "about": "“XENON BASED DRUG PROTEIN BINDING ASSAY” (priority 2016, published 2018)", "key": {"bovine serum albumin": {"molecular_target": "bovine serum albumin (Bos taurus, UniProt P02769)", "sequence (P02769 25-607)": "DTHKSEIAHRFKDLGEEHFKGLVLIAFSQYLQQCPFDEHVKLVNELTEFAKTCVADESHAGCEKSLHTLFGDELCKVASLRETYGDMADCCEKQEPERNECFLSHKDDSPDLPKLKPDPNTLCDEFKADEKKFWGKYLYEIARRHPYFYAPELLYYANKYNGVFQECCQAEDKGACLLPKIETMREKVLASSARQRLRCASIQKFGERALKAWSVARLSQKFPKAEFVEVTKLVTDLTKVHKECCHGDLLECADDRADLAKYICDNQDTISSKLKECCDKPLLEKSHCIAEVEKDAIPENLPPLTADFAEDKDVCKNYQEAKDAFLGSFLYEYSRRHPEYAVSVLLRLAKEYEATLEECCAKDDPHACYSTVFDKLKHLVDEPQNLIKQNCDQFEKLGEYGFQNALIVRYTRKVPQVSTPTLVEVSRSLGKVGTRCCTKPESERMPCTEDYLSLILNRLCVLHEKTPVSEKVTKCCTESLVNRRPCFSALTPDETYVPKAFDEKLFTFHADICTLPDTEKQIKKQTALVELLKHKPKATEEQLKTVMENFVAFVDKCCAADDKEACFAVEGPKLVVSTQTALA", "assay": "Drug titration of xenon T2 in 10 μM fatty acid free bovine serum albumin", "assay_type": "binding", "conditions": "for effect on the xenon T2 of albumin: titration up to 1 mM drug, 9.4 T, 25 degrees Celsius", "experimental": "The following experiments were performed with fatty acid free bovine serum albumin. It is important to note whether the albumin one uses contains fatty acids both because the fats will alter the binding affinity of a drug and also because they alter the relaxivity of albumin. The drug titrations were performed by preparing a 10 μM solution of bovine serum albumin into which aliquots of high concentration drug solutions were added. Most drugs, as well as all protein solutions, were dissolved in 1×PBS buffer. It is important to keep the pH of the solution constant when studying albumin because that protein has many different pH dependent conformations.\nAll solutions were made by dissolving the drugs in 1×PBS, with the exception of the tenoxicam solution. The T2 times of solutions containing high concentrations of drugs were measured. […] For the tenoxicam solution, about 400 μL of DMSO was added to a 10 mL solution of 1×PBS.\nT2 times were measured using a standard CPMG pulse sequence with 100 ms long echo spacings. All experiments were performed at 9.4 Tesla using hyperpolarized xenon. This hyperpolarized xenon was prepared using a homebuilt spin exchange optical pumping based polarizer. The protein solution was attached to the polarizer's flow system and the pressurized to 60 psi. Xenon was bubbled into the protein solution at a rate of about 0.1 standard liters per minute. The gas mixture used contained 2% xenon, with the rest of the gases being helium and nitrogen. All experiments were performed at 25 degrees Celsius.\nAll protein solutions required the addition of an antifoaming agent in order to prevent the xenon from forcing the sample out of the NMR tube. […] 1-octanol was used as the antifoaming agent in this experiment. The concentration of 1-octanol used was 5 μL of alcohol per 10 mL of solution."}, "albumin [1]": {"molecular_target": "T1, albumin (Bos taurus, UniProt P02769)", "parameters": "other: bovine serum albumin whenever possible, close to 25 degrees Celsius; highest", "conditions": "bovine serum albumin whenever possible, close to 25 degrees Celsius; highest affinity site; cited from earlier work"}, "albumin [2]": {"molecular_target": "T1, albumin", "assay": "Xenon T2 relaxation measurement of drug binding to albumin (Tables 1 and 2)", "parameters": "T2: unit not given here", "conditions": "10 μM albumin, 9.4 T", "text": "Hyperpolarized ^129Xe was generated in a rubidium cell hyperpolarizer, and bubbled into the solution.\nHyperpolarized ^129Xe was magnetized in a rubidium cell hyperpolarizer, and bubbled into the solution."}}}
{"smiles": "CCCCCCCC/C=C\\CCCCCCCC(=O)[O-].[Na+]", "note": "[Sodium Oleate, sodium oleate]", "values": [{"measurement": "increase of xenon T2", "setting": "bovine serum albumin; three times as much sodium oleate as albumin, 10 μM albumin", "value": 3, "unit": "s"}, {"measurement": "effect on the xenon T2 of albumin", "setting": "bovine serum albumin; 10 μM BSA", "value": "increased"}, {"measurement": "Highest Binding Affinity log10(Ka)", "setting": "albumin [1]", "value": 8.0}]}
{"smiles": "CN1C(C(=O)Nc2ccccn2)=C(O)c2sccc2S1(=O)=O", "note": "[Tenoxicam, tenoxicam]", "values": [{"measurement": "Highest Binding Affinity log10(Ka)", "setting": "albumin [1]", "value": 5.4}]}
{"smiles": "Cc1onc(-c2c(F)cccc2Cl)c1C(=O)N[C@@H]1C(=O)N2[C@@H]1SC(C)(C)[C@@H]2C(=O)O", "note": "[Flucloxacillin, flucloxacillin]", "values": [{"measurement": "effect on the xenon T2 of albumin, repeated titration", "setting": "bovine serum albumin; higher concentrations of drug (beyond 1 mM), 10 μM BSA", "value": "no effect"}, {"measurement": "effect on the xenon T2 of albumin", "setting": "bovine serum albumin; 10 μM BSA", "value": "much weaker effect"}, {"measurement": "Highest Binding Affinity log10(Ka)", "setting": "albumin [1]", "value": 4.6}, {"measurement": "T2", "setting": "albumin [2]; 70 μM flucloxacillin", "value": "0.91 ± 0.04"}, {"measurement": "T2", "setting": "albumin [2]; 200 μM flucloxacillin", "value": "0.99 ± 0.04"}, {"measurement": "T2", "setting": "albumin [2]; 250 μM flucloxacillin", "value": "1.53 ± 0.05"}, {"measurement": "T2", "setting": "albumin [2]; 450 μM flucloxacillin", "value": "0.97 ± 0.03"}, {"measurement": "T2", "setting": "albumin [2]; 2000 μM flucloxacillin", "value": "0.73 ± 0.04"}]}
{"smiles": "Cn1c(=O)c2c(ncn2C)n(C)c1=O", "note": "[Caffeine, caffeine]", "values": [{"measurement": "Highest Binding Affinity log10(Ka)", "setting": "albumin [1]", "value": 4.3}, {"measurement": "Xenon relaxation time, T2", "setting": "albumin [2]; 16 μM caffeine", "value": "0.54 ± 0.04", "unit": "s"}, {"measurement": "Xenon relaxation time, T2", "setting": "albumin [2]; 43 μM caffeine", "value": "0.47 ± 0.04", "unit": "s"}, {"measurement": "Xenon relaxation time, T2", "setting": "albumin [2]; 56 μM caffeine", "value": "0.63 ± 0.04", "unit": "s"}, {"measurement": "Xenon relaxation time, T2", "setting": "albumin [2]; 100 μM caffeine", "value": "0.69 ± 0.03", "unit": "s"}, {"measurement": "Xenon relaxation time, T2", "setting": "albumin [2]; 500 μM caffeine", "value": "0.51 ± 0.03", "unit": "s"}, {"measurement": "Xenon relaxation time, T2", "setting": "albumin [2]; 5000 μM caffeine", "value": "0.67 ± 0.04", "unit": "s"}, {"measurement": "Xenon relaxation time, T2", "setting": "albumin [2]; 80000 μM caffeine", "value": "1.07 ± 0.03", "unit": "s"}]}
